Laboratory results as given in PubChem BioAssay AID330 (DTP/NCI, 2004).
Where “and” joins values, the source holds several entries; their conditions need not be identical. Equal values may be shown once. Inconclusive results and toxic doses are left out. Rule for the calls: active = survival T/C of 150% or more; inactive = T/C below 125% in these data.

Tested on: P388 leukemia ip, CD2F1 mice, survival T/C
Experiment: NCI In Vivo Anticancer Drug Screen. Data for tumor model P388 Leukemia (intraperitoneal) in CD2F1 (CDF1) mice
Conditions: endpoint: median survival time, higher = longer survival
Summary of the method: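 Mice carrying the transplanted tumor received test compound or vehicle. Survival was recorded in each group, and the value is the treated-group measurement divided by that of the vehicle-treated control group.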

[1] = dose: 100.0 mg/kg/injection, schedule: Q01DX009 (ip), vehicle: saline with Tween-80
[2] = dose: 200.0 mg/kg/injection, schedule: Q01DX009 (ip), vehicle: saline with Tween-80
[3] = dose: 50.0 mg/kg/injection, schedule: Q01DX009 (ip), vehicle: saline with Tween-80
[4] = dose: 50.0 mg/kg/injection, schedule: Q01DX009 (ip), vehicle: saline
[5] = dose: 50.0 mg/kg/injection, schedule: Q01DX009 (ip), vehicle: Klucel (hydroxypropylcellulose) (HPC)
[6] = dose: 100.0 mg/kg/injection, schedule: Q01DX009 (ip), vehicle: Klucel (hydroxypropylcellulose) (HPC)
[7] = dose: 50.0 mg/kg/injection, schedule: Q01DX005 (ip), vehicle: Klucel (hydroxypropylcellulose) (HPC)
[8] = dose: 100.0 mg/kg/injection, schedule: Q01DX005 (ip), vehicle: Klucel (hydroxypropylcellulose) (HPC)
[9] = dose: 200.0 mg/kg/injection, schedule: Q01DX005 (ip), vehicle: Klucel (hydroxypropylcellulose) (HPC)
[10] = dose: 100.0 mg/kg/injection, schedule: Q01DX009 (ip), vehicle: saline
[11] = dose: 50.0 mg/kg/injection, schedule: Q01DX005 (ip), vehicle: saline with Tween-80
[12] = dose: 100.0 mg/kg/injection, schedule: Q01DX005 (ip), vehicle: saline with Tween-80
[13] = dose: 200.0 mg/kg/injection, schedule: Q01DX005 (ip), vehicle: saline with Tween-80

Measured: T/C

O=C(/C=C(\NC1CCCCC1)C(=O)c1ccccc1)c1ccccc1
inactive: [1] 90 % of control | [2] 90 % of control | dose: 400.0 mg/kg/injection, schedule: Q01DX009 (ip), vehicle: saline with Tween-80 100 % of control

Cc1ccc(N2C(=O)c3ccccc3NC2(C)CCl)cc1 (stereo not given)
inactive: [3] 103 % of control | [1] 103 % of control | [2] 112 % of control

N#CC12C3C4C5C3C1n1c(=O)n(-c3ccccc3)c(=O)n1C5C42 (stereo not given)
inactive: dose: 100.0 mg/kg/injection, schedule: Q04DX003 (ip), vehicle: Klucel (hydroxypropylcellulose) (HPC) 106 % of control | dose: 200.0 mg/kg/injection, schedule: Q04DX003 (ip), vehicle: Klucel (hydroxypropylcellulose) (HPC) 106 % of control | dose: 400.0 mg/kg/injection, schedule: Q04DX003 (ip), vehicle: Klucel (hydroxypropylcellulose) (HPC) 107 % of control

CCC1COS(=O)(=O)CS(=O)(=O)O1 (stereo not given)
inactive: dose: 60.0 mg/kg/injection, schedule: Q01DX005 (ip), vehicle: saline with Tween-80 101 % of control | dose: 120.0 mg/kg/injection, schedule: Q01DX005 (ip), vehicle: saline with Tween-80 100 % of control | dose: 240.0 mg/kg/injection, schedule: Q01DX005 (ip), vehicle: saline with Tween-80 105 % of control

CN1CCCC(C(=O)c2ccccc2)C1 (stereo not given)
inactive: dose: 12.5 mg/kg/injection, schedule: Q01DX009 (ip), vehicle: saline 109 % of control | dose: 25.0 mg/kg/injection, schedule: Q01DX009 (ip), vehicle: saline 105 % of control | [4] 107 % of control and 94 % of control

CC(C)C(=NC(C)(C)C)Nc1ccccc1Cl
inactive: [3] 100 % of control | [1] 92 % of control | [2] 95 % of control

CC(=O)O[C@H]1[C@H]2O[C@]23[C@@H]2CC[C@]4(O)C[C@@H](O)CC[C@]4(C)[C@H]2CC[C@]3(C)[C@H]1c1ccc(=O)oc1
inactive: dose: 12.5 mg/kg/injection, schedule: Q01DX009 (ip), vehicle: Klucel (hydroxypropylcellulose) (HPC) 114 % of control | dose: 25.0 mg/kg/injection, schedule: Q01DX009 (ip), vehicle: Klucel (hydroxypropylcellulose) (HPC) 105 % of control | [5] 105 % of control | [6] 120 % of control

N#Cc1c(-c2ccccc2)c(-c2ccccc2)n(-c2ccccc2)c1N
inactive: [3] 104 % of control | [1] 104 % of control | [2] 104 % of control

Cn1c(NCCN2CCCCC2)c(C(=O)/C=C/c2ccccc2)c(=O)n(C)c1=O
inactive: [7] 104 % of control | [8] 107 % of control | [9] 103 % of control

CN(C)CCC(=O)c1ccccc1
inactive: [4] 104 % of control | [10] 110 % of control

CS(=O)(=O)OCCCCCCCCCCCCCC1C=CCC1 (stereo not given)
inactive: dose: 100.0 mg/kg/injection, schedule: Q04DX003 (ip), vehicle: saline 99 % of control | dose: 200.0 mg/kg/injection, schedule: Q04DX003 (ip), vehicle: saline 103 % of control | dose: 400.0 mg/kg/injection, schedule: Q04DX003 (ip), vehicle: saline 99 % of control

[N-]=[N+]=Nc1cccc(Nc2c3ccccc3nc3ccccc23)c1
inactive: [5] 98 % of control | [6] 100 % of control | dose: 200.0 mg/kg/injection, schedule: Q01DX009 (ip), vehicle: Klucel (hydroxypropylcellulose) (HPC) 107 % of control

N/N=C(\N)c1nn(C2OC(CO)C(O)C2O)c2ncnc(N)c12 (stereo not given)
inactive: dose: 40.0 mg/kg/injection, schedule: Q01DX005 (ip), vehicle: saline with Tween-80 104 % of control | dose: 80.0 mg/kg/injection, schedule: Q01DX005 (ip), vehicle: saline with Tween-80 104 % of control | dose: 160.0 mg/kg/injection, schedule: Q01DX005 (ip), vehicle: saline with Tween-80 101 % of control | dose: 320.0 mg/kg/injection, schedule: Q01DX005 (ip), vehicle: saline with Tween-80 104 % of control

O=c1[nH]c2cc(Cl)ccc2nc1/C=C(\O)c1ccccc1
inactive: dose: 60.0 mg/kg/injection, schedule: Q01DX005 (ip), vehicle: Klucel (hydroxypropylcellulose) (HPC) 96 % of control | dose: 120.0 mg/kg/injection, schedule: Q01DX005 (ip), vehicle: Klucel (hydroxypropylcellulose) (HPC) 91 % of control | dose: 240.0 mg/kg/injection, schedule: Q01DX005 (ip), vehicle: Klucel (hydroxypropylcellulose) (HPC) 92 % of control

COC(=O)n1oc2ccc(Br)cc2c1=O
inactive: [7] 98 % of control | [8] 100 % of control | [9] 106 % of control

OCN(CO)c1nc(CCC(Cl)(Cl)Cl)nc(N(CO)CO)n1
inactive: dose: 12.5 mg/kg/injection, schedule: Q01DX009 (ip), vehicle: distilled water + Tween-80 96 % of control | dose: 25.0 mg/kg/injection, schedule: Q01DX009 (ip), vehicle: distilled water + Tween-80 99 % of control | dose: 50.0 mg/kg/injection, schedule: Q01DX009 (ip), vehicle: distilled water + Tween-80 114 % of control | dose: 100.0 mg/kg/injection, schedule: Q01DX009 (ip), vehicle: distilled water + Tween-80 116 % of control | dose: 200.0 mg/kg/injection, schedule: Q01DX009 (ip), vehicle: distilled water + Tween-80 89 % of control

BrC1(Br)C2CC3C(CC21)C3(Br)Br (stereo not given)
inactive: dose: 37.5 mg/kg/injection, schedule: Q01DX001 (ip), vehicle: saline with Tween-80 100 % of control | dose: 75.0 mg/kg/injection, schedule: Q01DX001 (ip), vehicle: saline with Tween-80 109 % of control | dose: 150.0 mg/kg/injection, schedule: Q01DX001 (ip), vehicle: saline with Tween-80 100 % of control

CCCCCN(CCCCC)CC(=O)c1ccc2cc(Br)c3ccccc3c2c1
inactive: [11] 104 % of control | [12] 101 % of control | [13] 108 % of control

COc1ccc(N=C(C)C2C(=O)c3ccccc3C2=O)cc1
inactive: dose: 50.0 mg/kg/injection, schedule: Q01DX005 (ip), vehicle: DMSO 100 % of control | [11] 113 % of control | dose: 100.0 mg/kg/injection, schedule: Q01DX005 (ip), vehicle: DMSO 102 % of control | [12] 104 % of control | dose: 200.0 mg/kg/injection, schedule: Q01DX005 (ip), vehicle: DMSO 102 % of control | [13] 95 % of control | dose: 400.0 mg/kg/injection, schedule: Q01DX005 (ip), vehicle: DMSO 117 % of control | dose: 800.0 mg/kg/injection, schedule: Q01DX005 (ip), vehicle: DMSO 99 % of control

Cc1cn[nH]c(=O)c1
inactive: [3] 99 % of control | [1] 99 % of control | [2] 99 % of control

CC(=NC(C)(C)C)N1CCOCC1
inactive: dose: 50.0 mg/kg/injection, schedule: Q01DX009 (ip), vehicle: saline + Tween-80 + alcohol 101 % of control | dose: 100.0 mg/kg/injection, schedule: Q01DX009 (ip), vehicle: saline + Tween-80 + alcohol 100 % of control | dose: 200.0 mg/kg/injection, schedule: Q01DX009 (ip), vehicle: saline + Tween-80 + alcohol 88 % of control

ClCC1CCNCC1
inactive: [4] 100 % of control | [10] 100 % of control | dose: 200.0 mg/kg/injection, schedule: Q01DX009 (ip), vehicle: saline 99 % of control

O=C(O)CCCc1cccc2c1CCCC2
inactive: [7] 102 % of control | [8] 100 % of control | [9] 100 % of control

CN(C)c1ccc(C2Sc3ccccc3S2)cc1
inactive: dose: 100.0 mg/kg/injection, schedule: Q01DX001 (ip), vehicle: Klucel (hydroxypropylcellulose) (HPC) 97 % of control | dose: 200.0 mg/kg/injection, schedule: Q01DX001 (ip), vehicle: Klucel (hydroxypropylcellulose) (HPC) 95 % of control | dose: 400.0 mg/kg/injection, schedule: Q01DX001 (ip), vehicle: Klucel (hydroxypropylcellulose) (HPC) 97 % of control
